Experimental findings from patent US20190269792A1, “NANOPARTICLE COMPOSITIONS COMPRISING CD38 AND METHODS OF USE THEREOF” (Washington University, priority 2016, published 2019) are described below.

Data set [1] concerns MM cells. As to the kind of experiment: Anti-CD38 chitosan NPs uptake mechanism (endosome co-localization, uptake inhibitors, 4° C.). Format: cell-based, human. As to conditions: 30 min pre-incubation with inhibitor (cytochalasin D 1 μM, chlorpromazine 2 μM, nystatin 0.5 μg/ml, EGA 2.5 μM), then 2 h NPs. On the procedure:
Endocytosis is critical to the uptake of NPs in order to allow toxic effects in cells. MM cells were plated on glass bottom 8 well chambers and allowed to adhere overnight. CellLight Early Endosomes-GFP BacMam 2.0 reagent (targeting rab5) was added to result in a final concentration of 30 particles per cells and allowed to incubate with the cells for 18-24 h. Cells were washed twice with PBS and incubated with AF633 anti-CD38 chitosan NPs for 24 h. Cells were again washed twice with PBS and allowed to stay in phenol red free medium for imaging live under culture conditions of 37° C. and 5% CO2 at specified time points using FV1000 confocal microscope. To understand the process of internalization of anti-CD38 chitosan NPs, MM cells were pre-treated with inhibitors of macropinocytosis and phagocytosis (cytochalasin D), clathrin-mediated endocytosis (chlorpromazine), caveolae-mediated endocytosis (nystatin), or late endocytosis (EGA), prior to exposure to anti-CD38 chitosan NPs. […] MM cells (1×10^6 cell/ml) were pre-incubated at 37° C. with no inhibitor (Ctrl), cytochalasin D 1 μM, chlorpromazine 2 μM, nystatin 0.5 μg/ml, and EGA 2.5 μM or at 4° C. as control of the active uptake for 30 min. Cells were washed with PBS and incubated with AF633 anti-CD38 chitosan NPs for 2 h. Then, cells were washed and analyzed by flow cytometry for the fluorescence intensity of AF633.

In data set [2] the test system is MM cells. As to the kind of experiment: Effect of macropinocytosis and endocytosis inhibitors on survival of MM cells by MTT. Format: cell-based. As to conditions: pre-incubation at 37° C. for 30 min; cytochalasin D 1 μM, chlorpromazine 2 μM, nystatin 0.5 μg/ml, EGA 2.5 μM.
The subject of data set [3] is MM cell lines (MM.1S, H929, and RPMI8826). As to the kind of experiment: Cell viability of MM cells by MTT. The class given is cell-based, human. As to conditions: BTZ 5 nM or equivalent, 48 h.
Description: MM cell lines (MM.1S, H929, and RPMI8826) and PB MNCs were cultured with vehicle (control), BTZ as a free drug (5 nM), empty NPs, non-targeted NPs loaded with BTZ equivalent amounts to 5 nM, and anti-CD38 NPs loaded with BTZ equivalent amounts to 5 nM for 48 h. Cell viability was assessed using MTT solution followed by absorbance reading at 570 nm using a spectrophotometer as previously described [19]. Briefly, the MTT solution was added to the cells 48 h after starting the treatment, and 2-4 h later the stop solution was added.
The test system of another data set is PB MNCs. The data set is described as follows: Cell viability of normal PB MNCs by MTT. Format: cell-based, human. As to conditions: BTZ 5 nM or equivalent, 48 h. On the procedure: MM cell lines (MM.1S, H929, and RPMI8826) and PB MNCs were cultured with vehicle (control), BTZ as a free drug (5 nM), empty NPs, non-targeted NPs loaded with BTZ equivalent amounts to 5 nM, and anti-CD38 NPs loaded with BTZ equivalent amounts to 5 nM for 48 h. Cell viability was assessed using MTT solution followed by absorbance reading at 570 nm using a spectrophotometer as previously described. Briefly, the MTT solution was added to the cells 48 h after starting the treatment, and 2-4 h later the stop solution was added.

For data set [4], the system named is H929 cells. The data set is described as follows: Cell cycle by propidium iodide flow cytometry. The class given is cell-based, human. As to conditions: BTZ 5 nM or equivalent, 48 h. On the procedure:
Briefly, cells were washed, fixed with 70% ethanol, and washed again with PBS. RNA was degraded by incubation in RNAase for 30 minutes at 37° C., and the DNA was stained with PI solution for 10 minutes, then cells were analyzed by flow cytometry.
(In flow cytometry, cells or beads pass a laser one at a time.)

Data set [5] has as its system H929 cells. As to the kind of experiment: Apoptosis by Annexin V / PI flow cytometry. The class given is cell-based, human. As to conditions: BTZ 5 nM or equivalent, 48 h. On the procedure:
H929 cells (1×10^6 cell/ml) were cultured with vehicle (control), BTZ as a free drug (5 nM), empty chitosan NPs, non-targeted chitosan NPs loaded with BTZ equivalent amounts to 5 nM, and anti-CD38 chitosan NPs loaded with BTZ equivalent amounts to 5 nM for 48 h, and apoptosis was analyzed as previously described. Cells were washed and resuspended in 1× Annexin binding buffer, incubated with Annexin V for 15 minutes followed by staining with PI for extra 15 minutes, 1× binding buffer was added, and the cells were analyzed with flow cytometry.

Another data set has as its system proteasome. As to the kind of experiment: Proteasome activity assay (AMC-tagged peptide substrate) in extracts of treated MM cells. The class given is cell-based, human. As to conditions: for effect of inhibition of macropinocytosis or endocytosis pathways on proteasome activity: free drug 5 nM with uptake inhibitors. On the procedure:
Cell extracts were prepared in NP-40 lysis buffer from control and treated cells (BTZ as a free drug (5 nM), empty chitosan NPs, non-targeted chitosan NPs loaded with BTZ equivalent amounts to 5 nM, and anti-CD38 NPs loaded with BTZ equivalent amounts to 5 nM) retrieved after 2 h treatment with BTZ. Proteasome activity was determined using the AMC-tagged peptide substrate in a Proteasome Activity Assay Kit (abcam, Cambridge, Mass., USA) according to the manufacturer's protocol. Fluorescence was determined in a SpectraMax i3 Multi-Mode Detection Platform (Molecular Devices, Sunnyvale, Calif., USA) and proteasome activity was expressed as the amount of proteasome which generates 1.0 nmol of AMC per minute at 37° C.
Proteasome activity inhibition was also measured in combination with inhibitors of macropinocytosis and phagocytosis (cytochalasin D), clathrin-mediated endocytosis (chlorpromazine), caveolae-mediated endocytosis (nystatin), or late endocytosis (EGA), prior to exposure to anti-CD38 chitosan NPs loaded with BTZ equivalent amounts to 5 nM. MM cells were pre-incubated at 37° C. with no inhibitor (Ctrl), cytochalasin D 1 μM, chlorpromazine 2 μM, nystatin 0.5 μg/ml, and EGA 2.5 μM for 30 min. Cells were washed with PBS and incubated with anti-CD38 chitosan NPs loaded with BTZ equivalent amounts to 5 nM, then proteasome Activity Assay Kit was followed as in the previous experiment.

The test system of another data set is MM.1S cells. The data set is described as follows: Boron cellular accumulation by ICP-OES. The class given is cell-based, human. As to conditions: 100 nM, 1.5 h. Here is the method: MM.1S cells (40×10^6 cell/ml) were cultured with vehicle (control), BTZ as a free drug (100 nM), and anti-CD38 chitosan NPs loaded with BTZ equivalent amounts to 100 nM for 1.5 h. After the treatment the cells were spun down, washed, and cell pellet was digested in nitric acid. After dilution with deionized water, samples were microwave digested and then analyzed by ICP-OES for boron content.

For data set [6], the system named is MM.1S cells co-culture with MM-derived MSP-1 stromal cell line. As to the kind of experiment: Cell adhesion-mediated drug resistance, co-culture with MSP-1 stroma. As to conditions: BTZ 5 nM or equivalent, 48 h. The class given is cell-based, human. Here is the method:
In addition, cell proliferation assay of MM.1S cells co-culture with or without MM-derived MSP-1 stromal cell line with vehicle (control), BTZ as a free drug (5 nM), empty chitosan NPs, non-targeted chitosan NPs loaded with BTZ equivalent amounts to 5 nM, and anti-CD38 chitosan NPs loaded with BTZ equivalent amounts to 5 nM for 48 h was analyzed.

Data set [7] relates to MM cells cultured in normoxic (21% O2) or hypoxic (1% O2) conditions. The data set is described as follows: Hypoxia-mediated drug resistance. Format: cell-based, human. As to conditions: BTZ 5 nM or equivalent, 48 h. Here is the method: Furthermore, the effect of vehicle (control), BTZ as a free drug (5 nM), empty chitosan NPs, non-targeted chitosan NPs loaded with BTZ equivalent amounts to 5 nM, and anti-CD38 chitosan NPs loaded with BTZ equivalent amounts to 5 nM on proliferation of MM cells cultured in normoxic (21% O2) or hypoxic (1% O2) conditions for 48 h was measured.

The test system of another data set is MM.1S in 3DTEBM cultures. The data set is described as follows: Survival of MM cells in 3D tissue engineered bone marrow (3DTEBM). Format: cell-based, human. As to conditions: BTZ 10 nM or equivalent, 48 h. Here is the method: MM.1S (pre-labeled with Invitrogen cell tracers DiO (10 μg/ml) for 1 h) were cultured in relevant three-dimensional tissue engineered bone marrow (3DTEBM) cultures through crosslinking of fibrinogen as previously described. The effect of vehicle (control), BTZ as a free drug (10 nM), empty chitosan NPs, non-targeted chitosan NPs loaded with BTZ equivalent amounts to 10 nM, and anti-CD38 chitosan NPs loaded with BTZ equivalent amounts to 10 nM for 48 h was analyzed by flow cytometry. Higher BTZ doses (10 nM) are used in the 3DTEBM based on the known drug resistance of the cells in 3DTEBM cultures. Cell proliferation assays were performed by digestion of 3DTEBM cultures with type I collagenase (25 mg/ml for 2-3 h at 37° C.), followed by flow cytometry analysis using MACSQuant Analyzer (Miltenyi Biotec), and the data was analyzed using FlowJo program v10 (Ashland, Oreg.). Moreover, 3DTEBM cultures treated with AF633 anti-CD38 chitosan NPs loaded with BTZ equivalent amounts to 10 nM were imaged to determine NPs distribution by confocal microscopy after 24 h incubation.

The test system of a further data set is MM1s-GFP-Luc cells. As to the kind of experiment: MM tumor progression and survival in vivo. Details: species or system SCID mice. As to conditions: BTZ 1 mg/kg once a week. On the procedure:
(§1) MM1s-GFP-Luc cells were injected into forty female, 7-week old SCID mice i.v. at the concentration of 2×10^6 cells per mouse and tumor progression was evaluated using BLI. After 4 weeks, tumor bearing mice were randomized into 4 groups of 10 animals each and treated with: (i) vehicle, (ii) BTZ as a free drug (1 mg/kg once a week), (iii) non-targeted NPs loaded with BTZ equivalent amounts to 1 mg/kg (once a week), (iv) and anti-CD38 NPs loaded with BTZ equivalent amounts to 1 mg/kg (once a week). Tumor progression was followed in the 4 groups twice a week (for 5 weeks) by BLI; moreover the survival, weight, and general health of the animals was followed. In addition, 3 mice were taken from each group 3 weeks after the beginning of the treatment, and specimens of the BM, blood smear, spleen, liver, kidney, brain, spinal-cord and intestine were fixed and pathologically evaluated for treatment efficacy and histological tissue damage.

The nature of data set [8]: Side effects in vivo (weight loss, hair loss, histological tissue damage). Details: species or system SCID mice. As to conditions: BTZ 1 mg/kg once a week. Here is the method: as §1

A value given as a limit tells only on which side of the number the result lay.

Turning to `Cc1cccc(C)c1NC(=O)N/N=C/c1ccc(Br)cc1` [EGA], in the data set with MM cells [1], the “decrease of the uptake of the anti-CD38 NPs” value (from here on “decrease”) is “about 25%”. The “effect on cell survival” value with MM cells [2] was “no effect on cell survival”.

Turning to `CN(C)CCCN1c2ccccc2Sc2ccc(Cl)cc21` [chlorpromazine], in the data set with MM cells [1], the “decrease” value is recorded as “about 25%”.

Turning to `C=C1[C@@H](C)[C@H]2[C@H](Cc3ccccc3)NC(=O)[C@]23[C@H](OC(C)=O)/C=C/[C@@](C)(O)C(=O)[C@@H](C)C/C=C/[C@H]3[C@@H]1O` [cytochalasin D], the “decrease” value in the data set on MM cells [1] is “did not affect”. Moreover, in the data set with MM cells [2], the “effect on cell survival” value is on record as “no effect on cell survival”.

For `CC(C)C[C@H](NC(=O)[C@H](Cc1ccccc1)NC(=O)c1cnccn1)B(O)O` [free BTZ, bortezomib], the “killing of MM cells” value in data set [3] came out at 20%. The “effect on survival of PB MNCs” value in the data set with PB MNCs is given as “no effect”. In addition, the “effect on cell cycle” value in the data set on H929 cells [4] is “induced G0-G1 arrest”. Also, the “early apoptosis, late apoptosis and cell death” value in the data set with H929 cells [5] is “induced increase early apoptosis and no effect on late apoptosis and death”. In the data set with proteasome (BTZ 5 nM or equivalent, 2 h, MM cells (Experiment 7)), the proteasome activity inhibition was 50%. Moreover, the “inhibition in the proteasome activity” value with proteasome (BTZ 5 nM or equivalent, without inhibition of the uptake routs (Experiment 8)) was “about 40%”. Further, the “effect of inhibition of macropinocytosis or endocytosis pathways on proteasome activity” value was “led to any significant effect” in the data set on proteasome and “did not induce any change” with proteasome (listed as BTZ). Besides, in the data set with MM.1S cells, the “accumulation of BTZ (boron content) in cells versus control” value is given as “very similar to the levels measured in control”. Also, in [6], the “cell adhesion-mediated drug resistance (stroma co-culture versus mono-culture)” value was “induced resistance”. For the same molecule, the “hypoxia-mediated drug resistance (1% O2 versus 21% O2)” value in [7] is reported as “induced resistance”. Further, the “killing of MM cells in the 3DTEBM” value with MM.1S in 3DTEBM cultures worked out at 8%. Moreover, in the data set on MM1s-GFP-Luc cells, the “day by which all the group died” value is at most 29 days. Besides, the “tumor size by BLI compared to vehicle treatment” value in the data set with MM1s-GFP-Luc cells (5 weeks) was “efficacious in reducing tumor size”. In addition, the “hair loss compared to the vehicle-treated group” value in data set [8] was “significant hair loss”.

For the molecule `C[C@@H]1[C@H](O)[C@@H](C)/C=C/C=C/CC/C=C/C=C/C=C/C=C/C(O[C@H]2O[C@H](C)[C@@H](O)[C@H](N)[C@@H]2O)CC2O[C@](O)(CC(O)C(O)CCC(O)CC(O)CC(O)CC(=O)O[C@H]1C)CC(O)C2C(=O)O` (stereo partly shown) [nystatin], in the data set on MM cells [1], the “decrease” value was “about 25%”. For the same molecule, the “effect on cell survival” value with MM cells [2] is “no effect on cell survival”.
